pKi: −log10 of the molar value.

These results are taken from patent US7985745B2, “Method for pain treatment” (Abbott Laboratories, priority 2006, dated 2011).

Assay [1] addresses T1, histamine H4 receptor (Homo sapiens, UniProt Q9H3N8).
T1 construct: expressed in transfected cells; host or cells: HEK-293 cells, transient transfection with pCINeo vector; membranes
Put plainly: FLIPR Ca2+ assay in HEK-293 cells stably expressing histamine H4 receptor and Gαqi5. It is filed as cell-based. The settings on record: Kb for antagonists and inverse agonists, EC50 for partial agonists; block of histamine-induced Ca2+ increase. From the text: Histamine H4 receptors from mammalian species have been cloned. Methods to clone, express, and assess the potency and functional activity of such cloned genes are well known to those skilled in the art of molecular biology. […] Before testing, cells are loaded with a Ca^+2 sensitive fluorescent dye, in this case Fluo-4. In the case of partial agonist or agonist ligands, addition of compound to the cells leads to the increase in intracellular Ca^+2 which is detected by FLIPR (Fluorescence Imaging Plate Reader; Molecular Devices, Sunnyvale, Calif.) technology. […] The fluorescence intensities measured before addition of the test compound are subtracted from the fluorescence intensities at later time points. Peak response values determined at each concentration of ligand are expressed as a percentage of the response obtained with the full agonist histamine. Concentration versus response data are analyzed to obtain compound potency as Kb values for antagonists and inverse agonists and as EC50 values for partial agonists.

Assay [2] concerns the target T1, histamine H4 receptor. Put plainly: 3H-histamine competition binding assay, membranes of transfected HEK-293 cells. The following applies: displacement of [3H]-histamine, 25° C., 1 h; read-out: Potency in Competition Binding Assay. The protocol:
In this assay, membranes were prepared from HEK-293 cells transiently transfected with the pCINeo expression vector harboring the histamine H4 receptor by homogenization of the cells on ice in TE buffer (50 mM Tris-HCl buffer, pH 7.4, containing 5 mM EDTA), 1 mM benzamidine, 2 μg/ml aprotinin, 1 μg/ml leupeptin, and 1 μg/ml pepstatin. The homogenate was centrifuged at 40,000 g for 20 minutes at 4° C. This step was repeated, and the resulting pellet was resuspended in TE buffer. Aliquots were frozen at −70° C. until needed. On the day of assay, membranes were thawed and diluted with TE buffer. Competition radioligand binding assays were performed with increasing concentrations of test compound in the presence of [^3H]-histamine incubated at 25° C. for 1 h in a total volume of 0.5 ml of 50 mM Tris, 5 mM EDTA, pH 7.4. All binding reactions were terminated by filtration under vacuum onto polyethylenimine (0.3%) presoaked Unifilters (PerkinElmer Life Sciences) or Whatman GF/B filters (Whatman, Clifton, N.J.) followed by three brief washes with 4 ml of ice-cold TE buffer. Bound radiolabel was determined by liquid scintillation counting. For all of the radioligand competition binding assays, IC50 values and Hill slopes were determined by Hill transformation of the data and Ki values were determined by the Cheng-Prusoff equation.

Assay [3] concerns neuropathic pain. Nature of the assay: Bennett model: chronic constriction injury of sciatic nerve, mechanical stimulus. It is filed as in vivo, rat. From the text:
To prepare animals for the model, an incision of about 1.5 cm was made about 0.5 cm below the rat pelvis. The biceps femoris and the gluteous superficialis (right side) were separated and the sciatic nerve exposed, isolated, and four loose ligatures (5-0 chromic [NT]) with 1 mm spacing were placed around it. The rats were allowed to recover and then placed in a cage with soft bedding for 10 days before assessment of pain response to mechanical stimulus by the method described above for the Chung model.

The test system of assay [4] is thermal hyperalgesia. Put plainly: Complete Freund's adjuvant-induced thermal hyperalgesia. Type of assay: in vivo, rat. The settings on record: 30 minutes before testing, 48 hours after CFA, thermal stimulus. The protocol:
To assess the effectiveness of representative compounds of the invention against hyperalgesia, animals were tested in an acute model of adjuvant-induced thermal hyperalgesia (see for example, Honore, et al. Behavioural Brain Research 167 (2006) 355-364; Carroll, et al. US Patent application US 2006/0025614A 1). To prepare animals for the model, a solution of Complete Freund's adjuvant (150 microliters of a 50% aqueous solution, Sigma Chemical Company, St. Louis, Mo.) was injected into the plantar surface of test paw of the animal (rat). Rats so injected develop a hyperalgesia to thermal stimulation which is assessed 48 hours after injection of the Complete Freund's adjuvant using a commercially available paw thermal stimulator (UARDG, Dept. of Anesthesiology, Univ. California at San Diego, La Jolla, Calif.). For testing, rats were placed individually in a so-called ‘hot box’ (i.e. Plexiglass cubicles mounted on a glass surface) maintained at 30° C., and allowed a 30 minute habituation period. A thermal stimulus, in the form of radiant heat emitted from a focused projection bulb, was then applied to the plantar surface of each hind paw. The stimulus current was maintained (e.g. at 4.5 Amp) and the time of exposure set to limit the extent of possible tissue damage (e.g. maximum of 20 seconds exposure to thermal heating from the projection bulb). The time (in seconds) for the withdrawal of the paw that was injected with the Complete Freund's adjuvant (CFA) and subjected to the thermal stimulus was recorded, and this was compared to the time (in seconds) for withdrawal of the uninjected paw subjected to the same thermal stimulus. […] To test the effect of a compound on the hyperalgesia, the test compound is dissolved in a vehicle (e.g. water or saline) and administered by i.p. (intraperitoneal) injection 30 minutes before the testing of the animal's response to the thermal stimulus to the paws. The antihyperalgesic activity of the compound in blocking the pain is shown by an increase in the time to withdraw the CFA-injected paw subjected to thermal stimulus. Experiments are done with single-dose and escalating-dosages of the test compound, and dose response curves constructed to determine ED50 values.

T1 sequence (Q9H3N8 whole entry, species assumed): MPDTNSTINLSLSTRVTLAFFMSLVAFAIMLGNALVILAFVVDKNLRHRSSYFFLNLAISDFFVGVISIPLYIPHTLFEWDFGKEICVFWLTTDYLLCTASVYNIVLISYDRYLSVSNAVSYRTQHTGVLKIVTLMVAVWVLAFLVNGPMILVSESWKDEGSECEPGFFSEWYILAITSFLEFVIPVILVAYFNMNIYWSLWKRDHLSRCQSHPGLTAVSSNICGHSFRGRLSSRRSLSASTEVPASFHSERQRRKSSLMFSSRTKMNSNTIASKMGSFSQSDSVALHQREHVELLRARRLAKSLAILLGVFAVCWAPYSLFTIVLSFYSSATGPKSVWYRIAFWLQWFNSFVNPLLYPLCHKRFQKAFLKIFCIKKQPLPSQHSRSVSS

Consider `CN1CCN(c2cc(-c3ccc(C#N)cc3)nc(N)n2)CC1.O=C(O)/C=C\C(=O)O` [Example 1, 4-(2-Amino-6-(4-methylpiperazin-1-yl)pyrimidin-4-yl)benzonitrile, maleate], for which the “Potency in the FLIPR assay” value in assay [1] came to 58 nM. In addition, the pKi in assay [2] is 7.46. In addition, the MPE in assay [3] (100 micromole/kg i.p.) was determined as 18%; in assay [3] (300 micromole/kg i.p.), 63%; in assay [4] (30 micromole/kg i.p.) it was 62%; in assay [4] (100 micromole/kg i.p.), 88%.
`CN1CCN(C(=O)c2cc3cc(Cl)ccc3[nH]2)CC1` [Example 3, reference compound]: the MPE in assay [3] (250 micromole/kg i.p.) amounted to 32%; in assay [3] (500 micromole/kg i.p.) it was 73%; in assay [4] (30 micromole/kg i.p.), 27%; in assay [4] (300 micromole/kg i.p.) it was 81%.
As for `CNC1CN(c2nc(N)nc3c2CCCc2ccccc2-3)C1` [Example 6, 4-(3-Methylamino-azetidin-1-yl)-6,7-dihydro-5H-benzo[6,7]cyclohepta[1,2-d]pyrimidin-2-ylamine], the “Potency in the FLIPR assay” value in assay [1] amounted to 9 nM. Also, the pKi in assay [2] is 7.96.
